Columns and labels:
[1] = system: Moloney Murine Leukemia Virus; experiment: Antiviral screening against Moloney Murine Leukemia Virus (M-MuLV) by XC-assay (plaque reduction, SC-1 cells); assay type: cell-based; settings: SC1, SC-1/XC cells, Reed-Muench Method, read-out: ID50 (median inhibitory dose, virus plaque number)
Source text: Assay Procedure For Antiviral […] Against Moloney Murine Leukemia Virus (M-MuLV) By XC-Assay: The XC assay system is an indirect method for quantitation of murine-leukemia virus (MULV) originally described by […] et al, Proc. Nat'l. Acad Sci., 63, 753-758, (1969) and modified by W. Rowe et al, Virology, 42, 1136-1139, (1970). This test is based on the development of syncytial changes in the XC cell line when it is co-cultivated with mouse fibroblast cells (SC-1 cells) productively infected with MULV. The XC cell line was derived from a rat tumor induced by the Prague strain of Rous Sarcoma Virus (RSV) (J. Svobada et al, Folia Biol., 9, 77-81, […]). […] The following day, the cells were inoculated with 0.5 mL of a virus dilution containing 25 μg/mL of DEAE-dextran. […] The virus inoculum was then removed and replaced with 5mL of medium containing appropriate concentration of the test compound (two dishes/concentration). […] The medium (with or without the test compound) was changed at 48 hours. Five days after virus inoculation, the culture fluid was decanted and the cells were irradiated with a "GE" germicidal bulb for 30 seconds (60 ergs/mm^2 /sec UV-light). […] Virus plaques (i.e., areas of the cell sheet containing syncytial cells or focal masses of multinucleated giant cells) were counted using an inverted microscope.

HTLV-III/LAV [2] = experiment: Fluorescent assay of inhibition of HTLV-III/LAV in MT-2 cells (monoclonal antibody αp18); assay type: cell-based; settings: day 7 post-infection
HTLV-III/LAV [3] = experiment: Inhibition of HTLV-III/LAV cytopathic effect in MT-2 cells (visual inspection); assay type: cell-based; settings: for % Apparent CPE (destroyed cells / total cells scored): MT-2 cells, day 7 post-infection
MT-2 cells = experiment: Viability of HTLV-III/LAV-infected MT-2 cells (trypan blue exclusion); assay type: cell-based; settings: Homo sapiens, MT2, 168 h, day 7 post-infection, read-out: % Viable Cells (cells that excluded trypan blue / cells scored)
[4] = Water solubility (compared with AZT); assay type: physicochemical; settings: compared with 3'-azido-3'-deoxythymidine (AZT)
[5] = system: retroviruses, e.g., murine leukemia virus and HTLV III/LAV virus; experiment: Antiviral activity against retroviruses (general statement); assay type: cell-based; settings: murine leukemia virus and HTLV III/LAV virus (the AIDS virus)
HTLV-III/LAV virus = settings: Mitsuya and Broder, supra; cited from earlier work

| SMILES | IC50 [1] [µM] | % Fluoresence (fluorescent cells / total cells scored) (HTLV-III/LAV [2]; 0.5 μM) [%] | % Fluoresence (fluorescent cells / total cells scored) (HTLV-III/LAV [2]; 1.0 μM) [%] | % Apparent CPE (destroyed cells / total cells scored) (HTLV-III/LAV [3]; 0.5 μM) [%] | % Apparent CPE (destroyed cells / total cells scored) (HTLV-III/LAV [3]; 1.0 μM) [%] | effective dose compared with 2',3'-dideoxycytidine (HTLV-III/LAV [3]; HTLV-III/LAV infection in vitro, conclusion from Table 2 data) | antiviral activity against HTLV-III/LAV infection in vitro (HTLV-III/LAV [3]; conclusion from Table 2 data) | viability at 0.5 µM (MT-2 cells) [%] | viability at 1 µM (MT-2 cells) [%] | water solubility [4] | antiviral activity against retroviruses [5] | potency against HTLV-III/LAV virus in culture (HTLV-III/LAV virus) |
| --- | --- | --- | --- | --- | --- | --- | --- | --- | --- | --- | --- | --- |
| Nc1ccn([C@H]2C=C[C@@H](CO)O2)c(=O)n1 [2',3'-dideoxycytidin-2'-ene] | 3.7 | 5.6 ± 5.5 | 1.1 ± 0.1 | 90 ± 0.0 | 0.5 ± 0.5 | effective dose falls in the same range as 2',3'-dideoxycytidine | has antiviral activity against the HTLV-III/LAV infection in vitro | 22 | 90 | much better water solubility than that of 3'-azido-3'-deoxythymidine (AZT) | has antiviral activity against retroviruses |  |
| Nc1ccn([C@H]2CC[C@@H](CO)O2)c(=O)n1 [2',3'-dideoxycytidine, reference compound] | 4 | 4.3 ± 0.3 | 0.2 ± 0.1 | 40 ± 10 | 1.0 ± 0.0 |  |  | 75 | 96 |  |  | known potent compound against HTLV-III/LAV virus in culture |
